These results are taken from patent publication US20070299092A1 (Wyeth, priority 2004, published 2007).

The target of data set [1] is T1, human KDR (VEGF-receptor-2) (Homo sapiens, UniProt P35968).
T1 construct: beginning at Met-806; (5′-ATG GAT CCA GAT GM CTC CCA TTG) and ending at Val-1356; made in house
Kind of data set: KDR kinase enzyme assay (DELFIA, KDR-IC-Flag, poly(Glu4-Tyr) peptide). It counts as biochemical. The conditions noted are these: for inhibition at 1 µM: Concentration 1000 nM; for inhibition at 1 µM / inhibition at 0.1 µM: read-out: % Inhibition; for inhibition at 0.1 µM: Concentration 100 nM.

Data set [2] has as its target T1, human KDR (VEGF-receptor-2). Nature of the data set: KDR kinase enzyme assay wash-out experiments (irreversible inhibition). The format is biochemical. On the procedure:
To determine if compounds bound irreversibly to enzyme, plates were washed after the enzyme plus compound pre-incubation step and prior to the addition of ATP. Parallel plates were tested wherein one plate was processed exactly as above while a second plate was washed three times in 100 μl of 4 mM HEPES, pH 7.4, to remove unbound compound. 1× Kinase buffer (30 μl of 1 mM MnCl2, 4 mM HEPES, pH 7.4, 20 μM Na3VO4) and 20 μl of ATP/MgCl2 were added to the wash-out plate. Detection of phosphotyrosinylated peptide for both plates was performed as described above.
For each inhibitor shown in Table 2, two IC50 determinations are shown, one under normal conditions and the other where an intermediate wash-out step is carried out. […] If there was a large increase in the IC50 value in the wash-out experiment compared to the experiment where there was no wash-out, then it was determined that the compound was behaving as a conventional reversible binding inhibitor.

The target of data set [3] is T2, KDR (Homo sapiens, UniProt P35968). The note with it: compound conc. 1000 nM.
Data set [4] addresses T2, KDR. Nature of the data set: cell-based. The note with it: for IC50: IC50 (nM), inhibition of KDR kinase autophosphorylation in KDR15 cells, KDR15 cells, VEGF 50 ng/ml, phospho-KDR-Y996 immunoblot; for inhibition at 1 µM: read-out: % Inhibition of KDR kinase autophosphorylation in KDR15 cells, compound conc. 1000 nM.
Data set [5] has as its system Human umbilical vein endothelial cells (HUVEC). Nature of the data set: HUVEC proliferation assay, VEGF-dependent growth ([3H]-thymidine incorporation). It counts as cell-based. The note with it: for inhibition at 0.1 µM / inhibition at 1 µM / inhibition at 10 µM: Homo sapiens, HUVEC; for inhibition at 1 µM: conc. 1000 nM. In a few lines: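 HUVEC seeded 4000 cells/well, attached overnight, then given compound in serum/VEGF-free EBM plus 50 ng/ml VEGF (final); parallel plates used EGM2 with 2% serum lacking VEGF. Incubation 4-5 days at 37° C. DNA synthesis measured by 5 h [3H]-thymidine (1 μCi/well) incorporation, scintillation-counted.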
(Dividing cells build labelled thymidine or BrdU into new DNA.)

Several values for one entry are separate records, joined by “and”; a condition that tells them apart may be missing. Identical values can stand only once. Like-named read-outs stand apart in the source and are kept apart here.

T1 sequence (P35968 806-1356): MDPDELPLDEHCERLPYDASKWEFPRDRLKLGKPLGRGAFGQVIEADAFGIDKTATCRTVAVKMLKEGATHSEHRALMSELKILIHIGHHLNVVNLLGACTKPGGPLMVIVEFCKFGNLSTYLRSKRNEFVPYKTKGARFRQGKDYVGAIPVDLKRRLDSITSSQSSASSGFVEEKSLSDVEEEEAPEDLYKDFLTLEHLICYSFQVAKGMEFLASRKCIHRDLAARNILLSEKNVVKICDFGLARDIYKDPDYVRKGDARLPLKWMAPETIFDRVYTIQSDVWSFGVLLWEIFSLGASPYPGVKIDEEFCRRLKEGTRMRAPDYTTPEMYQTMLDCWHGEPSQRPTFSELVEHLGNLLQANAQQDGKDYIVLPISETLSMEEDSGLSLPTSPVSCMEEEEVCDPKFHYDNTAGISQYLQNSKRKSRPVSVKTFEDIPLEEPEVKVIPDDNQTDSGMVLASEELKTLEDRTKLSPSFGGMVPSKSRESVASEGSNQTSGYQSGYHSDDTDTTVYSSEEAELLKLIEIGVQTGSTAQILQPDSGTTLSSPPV
T2 sequence (P35968 20-1356): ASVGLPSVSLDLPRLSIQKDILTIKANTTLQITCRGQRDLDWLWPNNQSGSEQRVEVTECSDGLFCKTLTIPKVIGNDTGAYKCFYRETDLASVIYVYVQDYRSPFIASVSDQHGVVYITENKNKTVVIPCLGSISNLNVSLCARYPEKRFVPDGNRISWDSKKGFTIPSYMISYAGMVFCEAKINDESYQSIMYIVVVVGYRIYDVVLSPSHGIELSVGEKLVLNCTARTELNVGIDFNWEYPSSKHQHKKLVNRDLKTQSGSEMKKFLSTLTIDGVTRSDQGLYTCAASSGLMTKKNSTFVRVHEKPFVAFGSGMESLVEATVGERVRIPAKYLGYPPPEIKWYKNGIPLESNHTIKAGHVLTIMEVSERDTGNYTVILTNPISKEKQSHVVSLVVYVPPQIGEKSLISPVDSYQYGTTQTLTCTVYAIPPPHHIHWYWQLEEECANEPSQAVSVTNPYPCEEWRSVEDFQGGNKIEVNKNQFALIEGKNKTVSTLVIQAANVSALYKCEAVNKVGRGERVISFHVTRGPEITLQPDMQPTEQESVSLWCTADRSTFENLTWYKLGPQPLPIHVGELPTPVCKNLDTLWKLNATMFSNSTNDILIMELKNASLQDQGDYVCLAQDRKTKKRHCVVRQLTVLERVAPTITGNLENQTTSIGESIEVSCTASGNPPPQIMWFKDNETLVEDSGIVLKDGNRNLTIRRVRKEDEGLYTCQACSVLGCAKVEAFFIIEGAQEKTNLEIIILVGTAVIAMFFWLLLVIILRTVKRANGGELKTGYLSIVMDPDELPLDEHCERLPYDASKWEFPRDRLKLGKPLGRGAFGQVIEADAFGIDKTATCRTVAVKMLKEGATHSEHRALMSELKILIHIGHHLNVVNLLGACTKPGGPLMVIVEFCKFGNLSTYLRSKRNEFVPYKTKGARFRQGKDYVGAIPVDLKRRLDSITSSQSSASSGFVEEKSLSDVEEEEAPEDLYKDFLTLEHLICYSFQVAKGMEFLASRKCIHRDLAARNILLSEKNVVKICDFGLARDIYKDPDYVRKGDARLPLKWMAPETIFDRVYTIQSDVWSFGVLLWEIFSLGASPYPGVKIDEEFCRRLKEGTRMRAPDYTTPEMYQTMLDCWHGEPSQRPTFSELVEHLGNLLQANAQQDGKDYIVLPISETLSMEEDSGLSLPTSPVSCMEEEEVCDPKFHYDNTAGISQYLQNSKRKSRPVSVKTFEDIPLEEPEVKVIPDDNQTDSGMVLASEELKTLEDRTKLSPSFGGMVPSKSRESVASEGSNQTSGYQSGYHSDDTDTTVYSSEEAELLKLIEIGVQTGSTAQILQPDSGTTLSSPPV

`COc1cc2ncnc(NC3=CC(=O)C(C)=CC3=O)c2cc1OC` [Example 4, 2-[(6,7-dimethoxy-4-quinazolinyl)amino]-5-methylbenzo-1,4-quinone]: the IC50 in data set [1] (ATP conc. 10 μM) was 80.5 nM and 285 nM and 707 nM; in data set [2] (no wash), 285 nM; in data set [2] (wash out), > 1000 nM; against KDR [4], < 15.6 nM. The inhibition at 1 µM in data set [1] (ATP conc. 10 μM) worked out at 15%; in data set [1] (ATP conc. 1000 μM), 12%; at KDR [4] it was 100%. Moreover, the “Behaviour as reversible or irreversible binding inhibitor” value in data set [2] (IC50 with wash-out step compared to no wash-out step) is on record as “appear to act like reversible binding inhibitors”. In addition, the “% Inhibition of KDR kinase autophosphorylation in KDR15 cells” value (“% Inhibition … in KDR15 cells” below) on KDR [3] turned out to be 106%.

Consider `COc1cc2ncnc(NC3=CC(=O)C=C(C)C3=O)c2cc1OC` [Example 7, 2-[(6,7-dimethoxy-4-quinazolinyl)amino]-6-methylbenzo-1,4-quinone], for which the IC50 is 2.3 nM and 1.3 nM in data set [1] (ATP conc. 10 μM); 2.3 nM in data set [2] (no wash); 1.2 nM in data set [2] (wash out); 250 nM on KDR [4]. The results for the inhibition at 0.1 µM in data set [1] (ATP conc. 10 μM) and in data set [5] (conc. 100 nM) were 85% and 23%, respectively. For the same compound, the inhibition at 1 µM in data set [1] (ATP conc. 10 μM) amounted to 96%; in data set [1] (ATP conc. 1000 μM), 97%; in data set [5], 79%. Moreover, the inhibition at 10 µM is 96% in data set [1] (Concentration 10000 nM, ATP conc. 10 μM) and 97% in data set [5] (conc. 10000 nM). The “% Inhibition … in KDR15 cells” value at KDR [3] was 41%.

As for `COCCOc1cc2ncnc(NC3=CC(=O)C(N(C)c4ccc(N(C)C)cc4)=CC3=O)c2cc1OC` [Example 75, 2-[[4-(dimethylamino)phenyl](methyl)amino]-5-{[6-methoxy-7-(2-methoxyethoxy)quinazolin-4-yl]amino}benzo-1,4-quinone], the IC50 is 93 nM in data set [1] (ATP conc. 10 μM), 93 nM in data set [2] (no wash) and 161 nM in data set [2] (wash out). Further, the inhibition at 0.1 µM in data set [1] (ATP conc. 10 μM) was 47%; in data set [5] (conc. 100 nM), -22%. Moreover, the inhibition at 1 µM in data set [1] (ATP conc. 10 μM) was determined as 92%; in data set [1] (ATP conc. 1000 μM) it was 93%; in data set [5], 41%; on KDR [4] it was 45%. The inhibition at 10 µM in data set [5] (conc. 10000 nM) came to 91%. Besides, the “% Inhibition … in KDR15 cells” value at KDR [3] came to 61%.

Regarding `COCCOc1cc2ncnc(NC3=CC(=O)C(N(C)c4ccc(OC)cc4)=CC3=O)c2cc1OC` [Example 78, 2-{[6-methoxy-7-(2-methoxyethoxy)quinazolin-4-yl]amino}-5-[(4-methoxyphenyl)(methyl)amino]benzo-1,4-quinone], the melting point was 197 to 198 °C. In addition, the IC50 in data set [1] (ATP conc. 10 μM) is 147 nM and 95.9 nM and 406 nM. Further, in data set [2] (no wash), the IC50 was 147 nM and 95.9 nM. Also, in data set [2] (wash out), the IC50 is 514 nM and 150 nM. Also, in data set [5] (conc. 100 nM), the inhibition at 0.1 µM came to 6% and the “% Inhibition of VEGF-dependent growth of HUVEC” value worked out at 9%. In addition, the “% Inhibition of VEGF-dependent growth of HUVEC” value in data set [5] (conc. 10000 nM) is 94% and 99% and 74%. Moreover, the “% Inhibition … in KDR15 cells” value at KDR [3] is reported as 61%.

`COCCOc1cc2ncnc(NC3=CC(=O)C(N(C)C4CCCCC4)=CC3=O)c2cc1OC` [Example 80, 2-[cyclohexyl(methyl)amino]-5-{[6-methoxy-7-(2-methoxyethoxy)quinazolin-4-yl]amino}benzo-1,4-quinone] had a melting point of 178 to 180 °C. For the same compound, in data set [1] (ATP conc. 10 μM), the IC50 was 654 nM. In addition, in data set [5] (conc. 100 nM), the inhibition at 0.1 µM amounted to 39%. The inhibition at 1 µM in data set [5] was found to be 85%. Also, the inhibition at 10 µM in data set [5] (conc. 10000 nM) is 97%. Moreover, the “% Inhibition … in KDR15 cells” value at KDR [3] is reported as 52%. In addition, the IC50 at KDR [4] is < 62.5 nM.

The compound `COCCOc1cc2ncnc(NC3=CC(=O)C(OCc4ccccc4)=CC3=O)c2cc1OC` [Example 96, 2-(benzyloxy)-5-{[6-methoxy-7-(2-methoxyethoxy)quinazolin-4-yl]amino}benzo-1,4-quinone] had a melting point of 218 to 220 °C. In data set [1] (ATP conc. 10 μM), it took 52.8 nM to reach half-maximal inhibition (IC50), the inhibition at 0.1 µM turned out to be 67% and the inhibition at 1 µM amounted to 91%. The inhibition at 1 µM in data set [1] (ATP conc. 1000 μM) came to 96%. The “% Inhibition … in KDR15 cells” value on KDR [3] is 22%. The inhibition at 1 µM at KDR [4] was found to be 26%.

For the compound `COc1cc2ncnc(NC3=CC(=O)C(c4ccccc4)=CC3=O)c2cc1OC` [Example 99, 2-[(6,7-dimethoxyquinazolin-4-yl)amino]-5-phenylbenzo-1,4-quinone], the melting point was 200 to 205 °C. In data set [1] (ATP conc. 10 μM), the inhibition at 0.1 µM came out at 93% and the inhibition at 1 µM turned out to be 92%. Moreover, the inhibition at 1 µM in data set [1] (ATP conc. 1000 μM) worked out at 96%. The “% Inhibition … in KDR15 cells” value at KDR [3] was 29%. Besides, at KDR [4], the inhibition at 1 µM turned out to be 20%.

As a reminder, the IC50 is the concentration that gives 50% inhibition. Read a low IC50 as greater potency. Usually inhibition stands for the drop in the measured response relative to a control, in per cent. In general, melting point refers to the temperature of the solid-liquid transition.
